# Laboratory results from patent US12145920B2, “Lanthionine c-like protein 2 ligands, cells prepared therewith, and therapies using same” (NImmune Biopharma, Inc., priority 2019, dated 2024).
# Assays:
# [1] = system: C57B1/6 mice immunized with chicken collagen; assay: Collagen induced model of arthritis; assay type: in vivo; settings: spleens, 4 weeks daily oral 20 mg/kg vs vehicle
# Description: Models. Six-week-old C57B1/6 mice were immunized with 200 μg of chicken collagen emulsified in complete Freund's adjuvant by intradermal injections at the base of the tail. Mice were treated with 20 mg/kg of BT-104-B or vehicle, daily for four weeks.
# (§1) Immunological analysis. Spleens were excised from mice. Tissues were crushed and filtered to provide a cellular suspension. Red blood cells were lysed. Cells were labeled with mixtures of extracellular (CD45, CD3, CD4, CD8, CD11b, CD11c) and intracellular (IFNγ, IL17, TNF) antibodies in a sequential live staining in 96-well plates in preparation for flow cytometry. Data was captured on a BD FACS Celesta and analyzed using FACSDiva.
# [2] = system: C57BL/6 mice with CCl4-induced steatohepatitis; assay: CCl4 model of nonalcoholic steatohepatitis; assay type: in vivo; settings: oral 20 mg/kg, after 2 weeks of treatment
# Description: WD-induced model. C57BL/6 mice were administered bi-weekly intraperitoneal injections of 0.5 μL/g CCl4 to induce steatohepatitis for 4 weeks. Mice were treated daily, in a therapeutic manner after 2 weeks of injections. Treatment with BT-104-B (20 mg/kg) or vehicle control occurred by oral gavage. Dosage was calculated based off mean body weights.
# Analysis. Livers were excised and weighed. Sections of livers were excised and stored in buffered formalin for Sirius red staining or snap frozen for assessment of fibrosis. Severity of fibrosis was assessed by scoring of Sirius red stained liver by microscopic examination.
# NZB/W F1 mice = assay: NZB/W F1 genetic mouse model of SLE (BT-104-B); assay type: in vivo; settings: spleens, 12 weeks daily oral 20 mg/kg vs vehicle
# Description: NZB/W F1 model. Twenty-four-week-old, female NZB/W F1 mice were randomized into vehicle or BT-104-B treated arms based on baseline urine protein levels. BT-104-B was administered daily at 20 mg/kg for 12 weeks. Mice were weighed on a weekly basis to update dosage formulation. Dosage was calculated based off mean body weights.
# as §1, with “excised,” for “excised from mice. Tissues were”, “CD25)” for “CD11b, CD11c)”, “(IL21,” for “(IFNγ,”, “FOXP3)” for “TNF)”
# CD4+ T cells = assay: Immune effects in CD4+ splenocytes, flow cytometry (wild type); assay type: cell-based, C57BL/6 mice; settings: 0.1 micromolar, 48 h, vs vehicle, FIG. 4B
# From the text: Cell culture. Spleens were excised from C57BL/6 mice and assessed in wild-type and LANCL2 deficient states. Spleens were crushed between the frosted ends of microscope slides and filtered to provide a cellular suspension. Red blood cells were lysed through hypotonic lysis. Remaining cells were washed and filtered. CD4+ T cells were enriched within the suspension using magnetic sorting based negative selection. Cells were collected and plated within 96 well plates coated with anti-CD3 and cultured in the presence of BT-63 at 0, 0.1, 1 and 10 micromolar or BT-104A, BT-104B, or BT-104C at 0.1 micromolar for 48 h. During the last 6 h of culture, cells were stimulated with phorbol 12-myristate-13-acetate (PMA) and ionomycin.
# Immunological analysis. Cells were collected from 96 well plates and stained with a cocktail of antibodies for immunophenotyping by flow cytometry. Culture supernatant was collected and assayed for cytokine concentrations by cytometric bead array. Data was captured on a BD FACS Celesta and analyzed using FacsDiva.
# [3] = mice, oral dose of 10 mg/kg, comparison value; cited from earlier work
SMILES,proportion of IFNγ+ CD4+ T cells [1],proportion of IL-17+ CD4+ T cells [1],proportion of TNF+ CD11b+ CD11c+ myeloid cells [1],fibrotic scoring ([2]; Sirius red),liver weights [2],proportion of CD25+ FOXP3+ CD4+ T cells (NZB/W F1 mice),proportion of IL21+ CD4+ T cells (NZB/W F1 mice),proportion of IL-17+ CD4+ T cells (NZB/W F1 mice),TNFa+ CD4+ T cells (CD4+ T cells),proportions of IFNγ+ CD4+ T cells (CD4+ T cells),maximum plasma concentration [3] [ng/mL]
"O=C(CN1C(=O)CN(C(=O)c2cccc(-c3nc4ccccc4[nH]3)n2)CC1=O)c1ccccc1 [BT-104-B, 4-(6-(1H-benzo[d]imidazol-2-yl)picolinoyl)-1-(2-oxo-2-phenylethyl)piperazine-2,6-dione]",significantly reduced,significantly reduced,significantly reduced,reduced,reduced,significantly increasing,significantly reduced,significantly reduced,significantly decreasing,significantly decrease,
CC(C)(C(=O)c1ccccc1)N1CCN(C(=O)c2cccc(-c3nc4ccccc4[nH]3)n2)CC1 [BT-104-A],,,,,,,,,significantly decreasing,significantly decrease,
"O=C(c1cccc(-c2nc3ccccc3[nH]2)n1)N1CCN(C(=O)c2cccc(-c3nc4ccccc4[nH]3)n2)CC1 [BT-11, N,N-Bis(benzimidazolylpicolinoyl)piperazine]",,,,,,,,,,,4.9
